# Source: patent US20120309739A1, “AKT / PKB INHIBITORS” (ALMAC DISCOVERY LIMITED, priority 2009, published 2012)
# Counter-ions that a name gives are not always drawn.
# Experiments:
# Format in all cases: biochemical
# AKT2 = biological target: T1, AKT2 (Homo sapiens, UniProt P31751); experiment: AKT Kinase Assay (IMAP fluorescent polarisation) vs AKT2; settings: activated AKT2, FAM Crosstide substrate
# T1 construct: purchased SignalChem
# Procedure: (§1) Testing of the compounds was performed using an AKT Kinase Assay:
# (§2) Activated AKT isoforms 1, 2 and 3 were assayed utilising a 5′ FAM Crosstide (Seq. GRPRTSSFAEG-OH). The extent of kinase phosphorylation was determined by fluorescent polarisation using IMAP progressive binding reagent, which introduces binding beads which allow the reagent to specifically bind to phosphate residues via covalent co-ordination complex bonds.
# (§3) iMAP binding solution stops Crosstide/kinase interaction and specifically binds phosphorylated substrates. The degree of phosphorylation is determined by fluorescent polarisation (excitation 485 nm; emission 528 nm) or the reduction in speed of rotation of the excited substrate.
# (§4) The following materials were used in the assay: • a) Activated AKT isoforms (SignalChem.) dissolved in Complete Reaction buffer at a pre-determined concentration selected so that the assay was carried out in the linear range. • b) AKT substrate peptide: FAM Crosstide (R7110) Molecular Devices, diluted in complete reaction buffer. • c) iMAP Progressive Screening Express Kit (R8127) Molecular Devices • d) Complete Reaction Buffer containing 0.1% BSA, 10 mM Tris-HCl, 10 mM MgCl2, 0.05% NaN3 and 0.01% phosphate free BSA, 1 mM DTT • e) Progressive Binding Solution containing 75% Buffer A, 25% Buffer B and low volume Binding Reagent which contains the binding entity for the assay • f) ATP diluted in complete reaction buffer • g) Black polystyrene 384 well assay plates (Nunc). • h) Biotek Synergy 4 Hybrid Plate reader.
# (§5) 50 μl of test compound was dissolved in DMSO (Sigma Aldrich) and serially diluted in complete reaction buffer to give a fourteen point half log dose response and plated into 384 well black plates. The compound was incubated at room temperature with activated AKT isoform ([…]) at the pre-determined concentration, for 45 minutes.
# (§6) […] of ATP solution mixed with 2.5 μl of AKT substrate peptide (FAM Crosstide (R7110) Molecular Devices) were dispensed into each well and the plate centrifuged at 1000 rpm for 20 seconds to ensure homogenous mixing of reagents. The reaction mix was incubated in the dark for one hour at room temperature.
# (§7) The kinase reaction was stopped by the addition of Progressive Binding Solution and the mixture allowed to equilibrate for one hour in the dark, at room temperature.
# (§8) The fluorescent polarisation generated in each well was determined using a […] Synergy 4 Hybrid plate reader. In brief, each reaction solution was excited at 485 nm with the emission measured at 528 nm in both the parallel and perpendicular pathway.
# (§9) The polarisation value generated in each well was calculated by Gen5 software (Biotek) and the % inhibition of kinase activity compared to vehicle control was calculated via GraphPad Prism. IC50 values for each compound were calculated by non-linear regression analysis using Prism software.
# (§10) All plates were internally controlled by two methods. Firstly, by calculating the signal:noise ratio; based on kinase polarisation without inhibitor and polarisation generated by complete reaction buffer in the absence of activated kinase. Secondly by determining IC50 values generated by known inhibitors of the AKT isoforms.
# AKT3 = biological target: T2, AKT3 (Homo sapiens, UniProt Q9Y243); experiment: AKT Kinase Assay (IMAP fluorescent polarisation) vs AKT3; settings: activated AKT3, FAM Crosstide substrate
# T2 construct: purchased SignalChem
# Procedure: as §1, §2, §3, §4, §5, §6, §7, §8, §9, §10
# AKT1 = biological target: T3, AKT1 (Homo sapiens, UniProt P31749); experiment: AKT Kinase Assay (IMAP fluorescent polarisation) vs AKT1; settings: activated AKT1, FAM Crosstide substrate
# T3 construct: purchased SignalChem
# Procedure: as §1, §2, §3, §4, §5, §6, §7, §8, §9, §10
# T1 sequence (P31751 whole entry): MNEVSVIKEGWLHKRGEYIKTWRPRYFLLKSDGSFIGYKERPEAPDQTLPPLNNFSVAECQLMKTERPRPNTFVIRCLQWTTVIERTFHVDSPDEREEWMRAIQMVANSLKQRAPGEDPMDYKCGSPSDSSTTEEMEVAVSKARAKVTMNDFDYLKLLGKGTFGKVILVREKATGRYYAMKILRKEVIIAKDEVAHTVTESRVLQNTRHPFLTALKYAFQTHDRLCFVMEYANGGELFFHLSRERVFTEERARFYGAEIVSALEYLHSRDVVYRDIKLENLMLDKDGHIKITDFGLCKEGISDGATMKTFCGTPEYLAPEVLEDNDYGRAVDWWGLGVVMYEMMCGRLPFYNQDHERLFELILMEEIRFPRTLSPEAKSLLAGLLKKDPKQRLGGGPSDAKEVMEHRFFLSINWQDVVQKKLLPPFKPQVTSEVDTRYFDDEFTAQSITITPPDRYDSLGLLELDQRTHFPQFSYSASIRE
# T2 sequence (Q9Y243 whole entry): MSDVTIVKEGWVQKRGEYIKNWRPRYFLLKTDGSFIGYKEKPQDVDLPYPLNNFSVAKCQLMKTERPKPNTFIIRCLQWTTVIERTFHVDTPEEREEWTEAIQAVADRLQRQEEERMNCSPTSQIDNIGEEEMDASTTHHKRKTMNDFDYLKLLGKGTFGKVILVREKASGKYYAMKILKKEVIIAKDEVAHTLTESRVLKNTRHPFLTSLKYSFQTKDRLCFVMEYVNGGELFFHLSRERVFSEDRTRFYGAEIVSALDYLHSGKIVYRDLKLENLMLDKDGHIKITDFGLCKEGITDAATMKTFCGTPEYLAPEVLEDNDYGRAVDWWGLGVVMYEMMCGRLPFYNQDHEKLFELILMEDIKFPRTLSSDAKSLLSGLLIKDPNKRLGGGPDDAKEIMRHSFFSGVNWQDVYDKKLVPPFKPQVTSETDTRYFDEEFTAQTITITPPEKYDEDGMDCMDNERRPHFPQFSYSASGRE
# T3 sequence (P31749 whole entry): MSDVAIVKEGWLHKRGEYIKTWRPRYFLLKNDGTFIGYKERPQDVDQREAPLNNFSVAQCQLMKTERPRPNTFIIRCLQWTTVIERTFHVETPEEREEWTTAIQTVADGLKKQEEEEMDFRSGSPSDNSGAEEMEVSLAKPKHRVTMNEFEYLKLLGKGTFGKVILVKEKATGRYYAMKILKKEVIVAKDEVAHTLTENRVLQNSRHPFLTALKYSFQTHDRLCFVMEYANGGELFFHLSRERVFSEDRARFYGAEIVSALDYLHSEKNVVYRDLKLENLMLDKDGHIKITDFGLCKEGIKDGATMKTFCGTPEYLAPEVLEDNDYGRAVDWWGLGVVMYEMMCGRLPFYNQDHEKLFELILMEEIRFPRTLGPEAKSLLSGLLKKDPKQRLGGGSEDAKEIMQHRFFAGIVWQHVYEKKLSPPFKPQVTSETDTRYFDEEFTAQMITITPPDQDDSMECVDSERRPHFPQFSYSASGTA
IC50 (AKT2) [nM],IC50 (AKT3) [nM],IC50 (AKT1) [nM],SMILES
1000 to 10000,> 10000,> 10000,"NC1(c2ccc(-c3oc4cnccc4c3-c3ccccc3)cc2)CCC1 [Example 2, 1-(4-(3-Phenylfuro[2,3-c]pyridin-2-yl)phenyl)cyclobutanamine]"
1000 to 10000,1000 to 10000,1000 to 10000,"NC1(c2ccc(-c3oc4cnccc4c3I)cc2)CCC1 [Example 3, 1-(4-(3-Iodofuro[2,3-c]pyridin-2-yl)phenyl)cyclobutanamine]"
1000 to 10000,> 10000,100 to 1000,"Cn1ccc2oc(-c3ccc(C4(N)CCC4)cc3)c(-c3ccccc3)c2c1=O [Example 4, 2-(4-(1-Aminocyclobutyl)phenyl)-5-methyl-3-phenylfuro[3,2-c]pyridin-4(5H)-one]"
1000 to 10000,> 10000,1000 to 10000,"NC(=O)c1ccc2c(-c3ccccc3)c(-c3ccc(C4(N)CCC4)cc3)oc2c1 [Example 5, 2-(4-(1-Aminocyclobutyl)phenyl)-3-phenylbenzofuran-6-carboxamide]"
1000 to 10000,> 10000,1000 to 10000,"N#Cc1ccc2oc(-c3ccc(C4(N)CCC4)cc3)c(-c3ccccc3)c2c1 [Example 6, 2-(4-(1-Aminocyclobutyl)phenyl)-3-phenylbenzofuran-5-carbonitrile]"
100 to 1000,> 10000,100 to 1000,"NC(=O)c1ccc2oc(-c3ccc(C4(N)CCC4)cc3)c(-c3ccccc3)c2c1 [Example 7, 2-(4-(1-Aminocyclobutyl)phenyl)-3-phenylbenzofuran-5-carboxamide]"
1000 to 10000,> 10000,1000 to 10000,"N#Cc1cccc2c(-c3ccccc3)c(-c3ccc(C4(N)CCC4)cc3)oc12 [Example 8, 2-(4-(1-Aminocyclobutyl)phenyl)-3-phenylbenzofuran-7-carbonitrile]"
1000 to 10000,> 10000,1000 to 10000,"NC(=O)c1cccc2c(-c3ccccc3)c(-c3ccc(C4(N)CCC4)cc3)oc12 [Example 9, 2-(4-(1-Aminocyclobutyl)phenyl)-3-phenylbenzofuran-7-carboxamide.2HCl]"
> 10000,> 10000,> 10000,"NC1(c2ccc(-c3oc4ncc(Br)cc4c3-c3ccccc3)cc2)CCC1 [Example 11, 1-(4-(5-Bromo-3-phenylfuro[2,3-b]pyridin-2-yl)phenyl)cyclobutanamine.HCl]"
100 to 1000,1000 to 10000,1000 to 10000,"COc1nc(N2CCOCC2)nc2oc(-c3ccc(C4(N)CCC4)cc3)c(-c3ccccc3)c12 [Example 13, 1-(4-(4-Methoxy-2-morpholino-5-phenylfuro[2,3-d]pyrimidin-6-yl)phenyl)cyclobutanamine]"
100 to 1000,1000 to 10000,100 to 1000,"COc1nc(NCCN(C)C)nc2oc(-c3ccc(C4(N)CCC4)cc3)c(-c3ccccc3)c12 [Example 14, N^1-(6-(4-(1-Aminocyclobutyl)phenyl)-4-methoxy-5-phenylfuro[2,3-d]pyrimidin-2-yl)-N^2,N^2-dimethylethane-1,2-diamine]"
100 to 1000,1000 to 10000,1000 to 10000,"NC1(c2ccc(-c3sc4nc[nH]c(=O)c4c3-c3ccccc3)cc2)CCC1 [Example 16, 6-(4-(1-Aminocyclobutyl)phenyl)-5-phenylthieno[2,3-d]pyrimidin-4(3H)-one]"
1000 to 10000,> 10000,1000 to 10000,"COc1nccc2oc(-c3ccc(C4(N)CCC4)cc3)c(-c3ccccc3)c12 [Example 17, 1-(4-(4-Methoxy-3-phenylfuro[3,2-c]pyridin-2-yl)phenyl)cyclobutanamine]"
1000 to 10000,> 10000,100 to 1000,"NC1(c2ccc(-c3oc4cc[nH]c(=O)c4c3-c3ccccc3)cc2)CCC1 [Example 18, 2-(4-(1-Aminocyclobutyl)phenyl)-3-phenylfuro[3,2-c]pyridin-4(5H)-one]"
> 10000,> 10000,> 10000,"NC1(c2ccc(-c3oc4ncccc4c3-c3ccccc3)cc2)CCC1 [Example 19, 1-(4-(3-Phenylfuro[2,3-b]pyridin-2-yl)phenyl)cyclobutanamine]"
1000 to 10000,> 10000,1000 to 10000,"NC1(c2ccc(-c3oc4ncncc4c3-c3ccccc3)cc2)CCC1 [Example 20, 1-(4-(5-Phenylfuro[2,3-d]pyrimidin-6-yl)phenyl)cyclobutanamine]"
1000 to 10000,> 10000,1000 to 10000,"NC1(c2ccc(-c3oc4ncc([N+](=O)[O-])cc4c3-c3ccccc3)cc2)CCC1 [Example 21, 1-(4-(5-Nitro-3-phenylfuro[2,3-b]pyridin-2-yl)phenyl)cyclobutanamine]"
1000 to 10000,> 10000,1000 to 10000,"Nc1cnc2oc(-c3ccc(C4(N)CCC4)cc3)c(-c3ccccc3)c2c1 [Example 22, 2-(4-(1-Aminocyclobutyl)phenyl)-3-phenylfuro[2,3-b]pyridin-5-amine]"
> 10000,> 10000,> 10000,"NC1(c2ccc(-c3c(-c4ccccc4)oc4cccnc34)cc2)CCC1 [Example 23, 1-(4-(2-Phenylfuro[3,2-b]pyridin-3-yl)phenyl)cyclobutanamine]"
1000 to 10000,> 10000,1000 to 10000,"N#Cc1ccc2c(-c3ccccc3)c(-c3ccc(C4(N)CCC4)cc3)oc2c1 [Example 25, 2-(4-(1-Aminocyclobutyl)phenyl)-3-phenylbenzofuran-6-carbonitrile]"
1000 to 10000,> 10000,100 to 1000,"COc1nc(N(C)C)nc2oc(-c3ccc(C4(N)CCC4)cc3)c(-c3ccccc3)c12 [Example 26, 6-(4-(1-Aminocyclobutyl)phenyl)-4-methoxy-N,N-dimethyl-5-phenylfuro[2,3-d]pyrimidin-2-amine]"
100 to 1000,1000 to 10000,100 to 1000,"COc1nc(N2CC(CN)C2)nc2oc(-c3ccc(C4(N)CCC4)cc3)c(-c3ccccc3)c12 [Example 27, 1-(4-(2-(3-(Aminomethyl)azetidin-1-yl)-4-methoxy-5-phenylfuro[2,3-d]pyrimidin-6-yl)phenyl)cyclobutanamine]"
1000 to 10000,> 10000,> 10000,"NC1(c2ccc(-c3oc4ncc(N5CCOCC5)cc4c3-c3ccccc3)cc2)CCC1 [Example 28, 1-(4-(5-Morpholino-3-phenylfuro[2,3-b]pyridin-2-yl)phenyl)cyclobutanamine]"
1000 to 10000,> 10000,1000 to 10000,"NC1(c2ccc(-c3oc4ccccc4c(=O)c3-c3ccccc3)cc2)CCC1 [Example 29, 2-[4-(1-Amino-cyclobutyl)-phenyl]-3-phenyl-chromen-4-one hydrogen chloride*]"
> 10000,> 10000,100 to 1000,"N#Cc1cccc2c(-c3ccccc3)c(-c3ccc(C4(N)CNC4)cc3)oc12 [Example 30, 2-(4-(3-Aminoazetidin-3-yl)phenyl)-3-phenylbenzofuran-7-carbonitrile]"
100 to 1000,> 10000,≤ 100,"COc1nc(N)nc2oc(-c3ccc(C4(N)CCC4)cc3)c(-c3ccccc3)c12 [Example 31, 6-(4-(1-Aminocyclobutyl)phenyl)-4-methoxy-5-phenylfuro[2,3-d]pyrimidin-2-amine]"
100 to 1000,1000 to 10000,100 to 1000,"COc1nc(N2CCN(CCN(C)C)CC2)nc2oc(-c3ccc(C4(N)CCC4)cc3)c(-c3ccccc3)c12 [Example 33, 1-(4-(2-(4-(2-(Dimethylamino)ethyl)piperazin-1-yl)-4-methoxy-5-phenylfuro[2,3-d]pyrimidin-6-yl)phenyl)cyclobutanamine]"
100 to 1000,1000 to 10000,≤ 100,"COc1nc(NCCN2CCN(C)CC2)nc2oc(-c3ccc(C4(N)CCC4)cc3)c(-c3ccccc3)c12 [Example 34, 6-(4-(1-Aminocyclobutyl)phenyl)-4-methoxy-N-(2-(4-methylpiperazin-1-yl)ethyl)-5-phenylfuro[2,3-d]pyrimidin-2-amine]"
